Test results reported in ChEMBL document CHEMBL6153174, “Design and Synthesis of Novel Deazapurine DNMT 1 Inhibitors with In Vivo Efficacy in DLBCL” (J Med Chem, 2025).
The source made the active and inactive calls. No cut-off for these calls is given here.

Key:
[1] = Antitumor activity against human TMD8 cells harbouring TP53 mutant xenografted in mouse model assessed as tumor inhibition rate at 12.5 mg/kg, po QD relative to control; format: functional; design: scale not given: the % may be the effect or the level left
[2] = Antitumor activity against human TMD8 cells harbouring […] xenografted in mouse model assessed as body weight change at 12.5 mg/kg, po QD relative to control; format: functional
[3] = Antitumor activity against human TMD8 cells harbouring […] xenografted in mouse model assessed as tumor inhibition rate at 12.5 mg/kg, po QD relative to control; format: functional; design: scale not given: the % may be the effect or the level left
[4] = Antitumor activity against human TMD8 cells harbouring TP53 mutant xenografted in mouse model assessed as body weight change at 12.5 mg/kg, po QD relative to control; format: functional
MV4-11 = experiment: Antiproliferative activity against human MV4-11 cells assessed as inhibition of cell viability measured after 72 hrs by MTT assay; format: functional, cell-based; conditions: MV4-11, 72 h
[5] = target: T1, DNA (cytosine-5)-methyltransferase 1 (Homo sapiens, UniProt P26358); experiment: Inhibition of DNMT1 (unknown origin) at 1 uM preincubated for 15 mins followed by substrate and [3H-SAM] addition and measured after 60 mins by microbeta analysis relative to control; conditions: time 75.0 min
U2932 = experiment: Antiproliferative activity against human U2932 cells assessed as inhibition of cell viability measured after 72 hrs by MTT assay; format: functional, cell-based; conditions: U2932, 72 h
[6] = Antiproliferative activity against human NK-YS cells assessed as inhibition of cell viability measured after 72 hrs by MTT assay; format: functional, cell-based
Jurkat = experiment: Antiproliferative activity against human Jurkat cells assessed as inhibition of cell viability measured after 72 hrs by MTT assay; format: functional, cell-based
DOHH-2 = experiment: Antiproliferative activity against human DOHH-2 cells assessed as inhibition of cell viability measured after 72 hrs by MTT assay; format: functional, cell-based; conditions: DOHH-2, 72 h
TMD8 = experiment: Antiproliferative activity against human TMD8 cells assessed as inhibition of cell viability measured after 72 hrs by MTT assay; format: functional, cell-based; conditions: TMD8, 72 h
[7] = Cmax in Sprague-Dawley rat at 10 mg/kg, iv measured upto 24 hrs by LC/MS/MS analysis; format: ADME, organism-based; conditions: in vivo
[8] = Volume of distribution at steady state in Sprague-Dawley rat at 10 mg/kg, po measured upto 24 hrs by LC/MS/MS analysis; format: ADME, organism-based; conditions: in vivo
[9] = target: T1, DNA (cytosine-5)-methyltransferase 1; experiment: Inhibition of DNMT1 (unknown origin) at 5 uM preincubated for 15 mins followed by substrate and [3H-SAM] addition and measured after 60 mins by microbeta analysis relative to control; conditions: time 75.0 min
[10] = target: T2, DNA (cytosine-5)-methyltransferase 3A (Homo sapiens, UniProt Q9Y6K1); experiment: Inhibition of DNMT3A (unknown origin) preincubated for 15 mins followed by substrate and [3H-SAM] addition and measured after 60 mins by microbeta analysis
[11] = Terminal elimination half life in Sprague-Dawley rat at 10 mg/kg, iv measured upto 24 hrs by LC/MS/MS analysis; format: ADME, organism-based; conditions: in vivo, read-out: beta t1/2 (converted)
[12] = AUC (0 to t) in Sprague-Dawley rat at 10 mg/kg, iv measured upto 24 hrs by LC/MS/MS analysis; format: ADME, organism-based; conditions: Sprague-Dawley, in vivo
[13] = AUC (0 to t) in Sprague-Dawley rat at 10 mg/kg, po measured upto 24 hrs by LC/MS/MS analysis; format: ADME, organism-based; conditions: Sprague-Dawley, in vivo
[14] = Clearance in Sprague-Dawley rat at 10 mg/kg, iv measured upto 24 hrs by LC/MS/MS analysis; format: ADME, organism-based; conditions: in vivo
[15] = target: T3, Histone-lysine N-methyltransferase EHMT2 (Homo sapiens) (UniProt Q96KQ7); experiment: Inhibition of G9a (unknown origin) at 5 uM preincubated for 15 mins followed by substrate and [3H-SAM] addition and measured after 60 mins by microbeta analysis relative to control; conditions: time 75.0 min
T3 sequence (whole entry): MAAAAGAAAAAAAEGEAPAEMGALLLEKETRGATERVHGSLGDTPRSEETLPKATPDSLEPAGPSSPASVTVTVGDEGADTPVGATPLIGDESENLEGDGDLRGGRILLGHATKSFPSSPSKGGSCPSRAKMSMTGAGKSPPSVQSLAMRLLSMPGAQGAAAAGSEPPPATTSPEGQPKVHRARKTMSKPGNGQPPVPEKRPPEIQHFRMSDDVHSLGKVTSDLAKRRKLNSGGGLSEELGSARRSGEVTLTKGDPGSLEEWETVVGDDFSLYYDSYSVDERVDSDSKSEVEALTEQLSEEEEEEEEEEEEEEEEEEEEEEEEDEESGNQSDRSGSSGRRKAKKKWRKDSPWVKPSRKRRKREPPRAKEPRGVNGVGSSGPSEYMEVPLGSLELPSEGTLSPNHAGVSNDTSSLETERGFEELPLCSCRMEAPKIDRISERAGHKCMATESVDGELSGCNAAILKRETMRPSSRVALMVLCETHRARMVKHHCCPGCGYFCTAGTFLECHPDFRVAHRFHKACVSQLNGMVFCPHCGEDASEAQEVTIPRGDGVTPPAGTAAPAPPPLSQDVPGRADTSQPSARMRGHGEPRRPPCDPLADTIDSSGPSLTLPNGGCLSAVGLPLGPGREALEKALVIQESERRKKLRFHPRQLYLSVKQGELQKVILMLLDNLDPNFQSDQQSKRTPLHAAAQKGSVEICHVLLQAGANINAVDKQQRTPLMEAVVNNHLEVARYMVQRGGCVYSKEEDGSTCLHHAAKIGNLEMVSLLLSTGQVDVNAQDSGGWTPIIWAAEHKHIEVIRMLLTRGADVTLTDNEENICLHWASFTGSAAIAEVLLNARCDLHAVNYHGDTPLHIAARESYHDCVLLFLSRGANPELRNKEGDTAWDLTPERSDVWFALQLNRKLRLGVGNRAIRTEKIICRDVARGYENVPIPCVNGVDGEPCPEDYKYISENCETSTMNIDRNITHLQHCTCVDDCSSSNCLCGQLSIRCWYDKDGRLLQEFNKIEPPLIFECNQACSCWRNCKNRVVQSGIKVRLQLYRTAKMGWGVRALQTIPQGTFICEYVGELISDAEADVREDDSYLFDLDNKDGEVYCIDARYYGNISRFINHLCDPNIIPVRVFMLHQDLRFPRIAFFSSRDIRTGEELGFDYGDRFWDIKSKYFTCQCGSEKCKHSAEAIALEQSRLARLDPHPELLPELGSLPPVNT

[16] = Oral bioavailability in Sprague-Dawley rat at 10 mg/kg measured upto 24 hrs by LC/MS/MS analysis; format: ADME, organism-based; conditions: Sprague-Dawley, in vivo
[17] = target: DNA (cytosine-5)-methyltransferase 3B (Homo sapiens, UniProt Q9UBC3); experiment: Inhibition of DNMT3B (unknown origin) preincubated for 15 mins followed by substrate and [3H-SAM] addition and measured after 60 mins by microbeta analysis
U-937 = experiment: Antiproliferative activity against human U-937 cells assessed as inhibition of cell viability measured after 72 hrs by MTT assay; format: functional, cell-based; conditions: U-937, 72 h
[18] = Volume of distribution at steady state in Sprague-Dawley rat at 10 mg/kg, iv measured upto 24 hrs by LC/MS/MS analysis; format: ADME, organism-based; conditions: in vivo, read-out: Vdss
[19] = target: T2, DNA (cytosine-5)-methyltransferase 3A; experiment: Inhibition of DNMT3A (unknown origin) at 5 uM preincubated for 15 mins followed by substrate and [3H-SAM] addition and measured after 60 mins by microbeta analysis relative to control; conditions: time 75.0 min
[20] = Apparent clearance during terminal phase in Sprague-Dawley rat at 10 mg/kg, po measured upto 24 hrs by LC/MS/MS analysis; format: ADME, organism-based; conditions: in vivo, read-out: CLz/F (converted)
[21] = Terminal elimination half life in Sprague-Dawley rat at 10 mg/kg, po measured upto 24 hrs by LC/MS/MS analysis; format: ADME, organism-based; conditions: in vivo, read-out: beta t1/2 (converted)
[22] = Cmax in Sprague-Dawley rat at 10 mg/kg, po measured upto 24 hrs by LC/MS/MS analysis; format: ADME, organism-based; conditions: in vivo
[23] = target: T1, DNA (cytosine-5)-methyltransferase 1; experiment: Inhibition of DNMT1 in human DOHH-2 cells assessed as inhibition of DNA methylation incubated for 48 hrs by Western blot analysis; format: cell-based; conditions: dose 10-1000 nM
[24] = target: T1, DNA (cytosine-5)-methyltransferase 1; experiment: Inhibition of DNMT1 in human DOHH-2 cells assessed as inhibition of H3K9 methylation level incubated for 48 hrs by Western blot analysis; format: cell-based; conditions: dose 10-1000 nM
[25] = target: T1, DNA (cytosine-5)-methyltransferase 1; experiment: Inhibition of DNMT1 in human DOHH-2 cells assessed as inhibition of 5-methylcytosine level at 10 to 1000 nM incubated for 48 hrs by Western blot analysis; format: cell-based; conditions: dose 10-1000 nM

T1 sequence (P26358 whole entry): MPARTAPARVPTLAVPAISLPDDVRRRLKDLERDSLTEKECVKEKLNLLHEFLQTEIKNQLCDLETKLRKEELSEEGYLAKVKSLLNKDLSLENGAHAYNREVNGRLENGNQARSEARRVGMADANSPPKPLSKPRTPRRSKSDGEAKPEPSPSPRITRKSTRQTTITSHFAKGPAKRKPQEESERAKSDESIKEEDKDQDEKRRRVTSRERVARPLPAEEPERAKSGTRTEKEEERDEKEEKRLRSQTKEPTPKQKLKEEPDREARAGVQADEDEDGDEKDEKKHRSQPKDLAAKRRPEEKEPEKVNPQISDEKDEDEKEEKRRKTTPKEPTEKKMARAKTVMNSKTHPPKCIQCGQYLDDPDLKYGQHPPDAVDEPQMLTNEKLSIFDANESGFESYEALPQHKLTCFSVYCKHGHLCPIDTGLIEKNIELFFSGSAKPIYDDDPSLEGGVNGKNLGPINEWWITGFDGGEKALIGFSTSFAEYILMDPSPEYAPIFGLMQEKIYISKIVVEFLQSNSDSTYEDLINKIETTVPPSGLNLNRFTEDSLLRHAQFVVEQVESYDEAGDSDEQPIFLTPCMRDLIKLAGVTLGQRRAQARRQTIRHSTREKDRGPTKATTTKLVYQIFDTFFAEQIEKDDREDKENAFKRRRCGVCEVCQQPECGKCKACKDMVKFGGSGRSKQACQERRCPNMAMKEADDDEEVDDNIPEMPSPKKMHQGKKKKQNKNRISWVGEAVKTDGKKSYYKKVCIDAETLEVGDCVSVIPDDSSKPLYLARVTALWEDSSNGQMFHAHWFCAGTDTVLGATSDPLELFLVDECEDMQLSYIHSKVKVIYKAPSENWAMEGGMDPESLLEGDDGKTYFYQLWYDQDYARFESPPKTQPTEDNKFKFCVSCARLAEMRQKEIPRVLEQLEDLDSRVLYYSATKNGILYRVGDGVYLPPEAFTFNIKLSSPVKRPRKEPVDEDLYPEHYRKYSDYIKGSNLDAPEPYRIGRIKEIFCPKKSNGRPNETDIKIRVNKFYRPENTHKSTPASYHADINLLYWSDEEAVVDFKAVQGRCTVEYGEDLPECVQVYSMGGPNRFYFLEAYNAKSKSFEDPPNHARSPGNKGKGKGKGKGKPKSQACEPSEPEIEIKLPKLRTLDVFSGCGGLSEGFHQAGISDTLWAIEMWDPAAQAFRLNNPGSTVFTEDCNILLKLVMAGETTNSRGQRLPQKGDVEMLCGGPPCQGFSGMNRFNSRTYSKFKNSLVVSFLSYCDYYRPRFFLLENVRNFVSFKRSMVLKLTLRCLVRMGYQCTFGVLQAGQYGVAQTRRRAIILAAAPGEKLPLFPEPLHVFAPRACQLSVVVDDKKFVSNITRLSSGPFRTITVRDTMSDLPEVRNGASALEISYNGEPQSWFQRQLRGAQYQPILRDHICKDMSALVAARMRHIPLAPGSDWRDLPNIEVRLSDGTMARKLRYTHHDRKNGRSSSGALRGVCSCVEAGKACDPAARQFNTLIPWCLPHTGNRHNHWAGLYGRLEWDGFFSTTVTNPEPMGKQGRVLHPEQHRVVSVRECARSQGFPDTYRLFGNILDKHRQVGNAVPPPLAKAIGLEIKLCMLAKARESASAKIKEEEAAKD
T2 sequence (Q9Y6K1 whole entry, looked up): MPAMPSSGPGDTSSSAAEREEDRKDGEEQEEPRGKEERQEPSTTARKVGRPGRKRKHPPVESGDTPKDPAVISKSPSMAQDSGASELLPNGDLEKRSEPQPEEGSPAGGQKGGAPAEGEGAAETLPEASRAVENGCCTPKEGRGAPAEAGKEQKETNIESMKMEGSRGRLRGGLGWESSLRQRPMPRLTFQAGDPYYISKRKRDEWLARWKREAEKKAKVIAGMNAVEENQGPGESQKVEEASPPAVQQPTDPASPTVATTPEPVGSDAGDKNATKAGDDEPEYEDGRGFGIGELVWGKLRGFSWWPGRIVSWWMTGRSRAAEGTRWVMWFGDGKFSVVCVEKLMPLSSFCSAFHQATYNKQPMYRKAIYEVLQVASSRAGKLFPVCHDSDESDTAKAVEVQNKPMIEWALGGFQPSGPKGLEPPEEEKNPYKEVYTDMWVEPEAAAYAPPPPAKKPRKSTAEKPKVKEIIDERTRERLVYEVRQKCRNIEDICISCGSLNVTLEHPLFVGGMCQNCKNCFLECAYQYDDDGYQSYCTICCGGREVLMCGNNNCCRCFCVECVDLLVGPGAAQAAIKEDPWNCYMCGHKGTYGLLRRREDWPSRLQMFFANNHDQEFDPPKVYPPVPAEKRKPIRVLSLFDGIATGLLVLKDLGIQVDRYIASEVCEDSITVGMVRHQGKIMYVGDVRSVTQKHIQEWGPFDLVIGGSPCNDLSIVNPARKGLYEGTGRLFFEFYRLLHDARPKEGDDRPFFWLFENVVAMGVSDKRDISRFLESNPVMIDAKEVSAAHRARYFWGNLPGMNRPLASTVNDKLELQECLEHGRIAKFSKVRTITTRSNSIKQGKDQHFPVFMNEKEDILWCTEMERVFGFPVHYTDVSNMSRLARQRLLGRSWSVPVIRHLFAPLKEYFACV

Nc1cc(F)ccc1NC(=O)c1ccc(CNC(=O)/C=C/c2cccnc2)cc1 [TUCIDINOSTAT]
Activity [1]: 61%
Activity [2]: 2.5%
Activity [3]: 51.5%
Activity [4]: -2.3%

CN1CCN(c2cc(NCC3CCN(C(=O)C4CCC4)CC3)c3cnn(CCCN4CCOCC4)c3c2)CC1
IC50 (MV4-11): 34.5 µM
inhibition [5]: 9.3%

CCc1c(C#N)c(SC(C(N)=O)c2ccccc2)nc(N2CCC(N)CC2)c1C#N (stereo not drawn)
IC50 (U2932): 28.9 µM
IC50 [6]: 16.7 µM
IC50 (Jurkat): 19.8 µM
IC50 (DOHH-2): 11.1 µM
IC50 (TMD8): 21.4 µM

CN1CCC(Nc2nc(-c3ccc(F)nc3)nc3c2ccn3CCCN2CCCC2)CC1
Cmax [7]: 436 ng/mL
Vdss [8]: 303.6 L/kg
IC50 (MV4-11): 3.87 µM
inhibition [9]: 72%
IC50 [10]: 3.13 µM
half-life [11]: 468 min
AUC(0-t) at 24 h [12]: 2080 ng·h/mL
AUC(0-t) at 24 h [13]: 116 ng·h/mL
clearance [14]: 45 mL/min/kg
inhibition [15]: 4.2%
bioavailability [16]: 6.5%
IC50 [17]: > 20 µM
IC50 (U-937): 2610 nM
Vd [18]: 33.8 L/kg
inhibition [19]: 6.8%
CL/F [20]: 1050 mL/min/kg
half-life [21]: 210 min
Cmax [22]: 17.3 ng/mL

CN1CCN(c2cc(NCC3CCN(C(=O)NC(C)(C)C)CC3)c3cnn(CCCN4CCOCC4)c3c2)CC1
IC50 (MV4-11): 19.4 µM
inhibition [5]: 0.91%

COc1cc2c(NC3CCN(C)CC3)cc(-c3ccc(C)o3)nc2cc1OCCCN1CCCC1
IC50 (U2932): 2.13 µM
inhibition [23]: Dose-dependent-effect
inhibition [24]: Dose-dependent-effect
IC50 (Jurkat): 0.41 µM
IC50 (DOHH-2): 0.23 µM
IC50 (TMD8): 0.19 µM
inhibition [25]: Active
